Measured values reported in PMC10999543, “Identification of kinase modulators as host-directed therapeutics against intracellular methicillin-resistant Staphylococcus aureus” (Frontiers in Cellular and Infection Microbiology, 2024).
Read-outs that look alike come from different tables or passages of the source.

How the values were obtained:
intracellular MRSA = type: cell-based, Staphylococcus aureus; conditions: for %GFP+ rep 1 / %GFP+ rep 2 / %GFP+ rep 3 / z-scoreMRSA+ mean / z-scoreMRSA+ rep 1 / z-scoreMRSA+ rep 2 / z-scoreMRSA+ rep 3: MRSA-infected HeLa cells; for %GFP+ rep 1 / z-scoreMRSA+ rep 1: replicate 1; for %GFP+ rep 2 / z-scoreMRSA+ rep 2: replicate 2; for %GFP+ rep 3 / z-scoreMRSA+ rep 3: replicate 3; for effect: Yes/No call from z-scoreMRSA+; for hit: Yes/No: effect without cell death; for z-scoreMRSA+ mean / z-scoreMRSA+ rep 1 / z-scoreMRSA+ rep 2 / z-scoreMRSA+ rep 3: compound screen; for z-scoreMRSA+ mean: mean of 3 replicates
In short: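 HeLa cells infected with GFP-MRSA (MOI ~6.8), gentamicin-cleared, then incubated overnight at 37°C with inhibitors plus 5 µg/ml gentamicin; DMSO as negative control, triplicates. Flow cytometry gave % GFP-positive cells and cell count (viability surrogate); hits by plate z-score (MRSA ≤ -2, HeLa count ≥ -3).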

HeLa cells = experiment: Compound screen by flow cytometry: HeLa cell count as surrogate readout of cell viability (z-scoreHeLa); type: cell-based, human
In short: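 HeLa cells were infected with GFP-MRSA (mean MOI 6.8 ± 4.6) for 1 h, and extracellular bacteria were killed with 30 µg/ml gentamicin. Cells were then incubated overnight with kinase inhibitors in 5 µg/ml gentamicin, in triplicate against DMSO controls. Flow-cytometric cell count served as a viability surrogate, expressed as a plate z-score.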

[1] = PKIS compound screen raw data, HeLa cell count, replicate 1
[2] = PKIS compound screen raw data, HeLa cell count, replicate 2
[3] = PKIS compound screen raw data, HeLa cell count, replicate 3
[4] = compound screen, HeLa cell count, mean of 3 replicates
[5] = compound screen, HeLa cell count, replicate 1
[6] = compound screen, HeLa cell count, replicate 2
[7] = compound screen, HeLa cell count, replicate 3

For O=C(Nc1n[nH]c2cc(-c3cccc(F)c3F)ccc12)C1CC1 [SB-733894], the “%GFP+ rep 1” value (intracellular MRSA; PKIS compound screen raw data) was 21.8%, the “%GFP+ rep 2” value (intracellular MRSA; PKIS compound screen raw data) was 21.7% and the “%GFP+ rep 3” value (intracellular MRSA; PKIS compound screen raw data) was 19.3%. The effect (intracellular MRSA) was “No”, the hit (intracellular MRSA) was “No” and the “z-scoreMRSA+ mean” value (intracellular MRSA) was -0.63. For the same compound, the “z-scoreMRSA+ rep 1” value (intracellular MRSA) was -0.81, the “z-scoreMRSA+ rep 2” value (intracellular MRSA) was -0.22 and the “z-scoreMRSA+ rep 3” value (intracellular MRSA) was -0.87. For the same compound, the “cell count rep 1” value (HeLa cells; [1]) was 4632, the “cell count rep 2” value (HeLa cells; [2]) was 4442 and the “cell count rep 3” value (HeLa cells; [3]) was 4898. For the same compound, the cell death (HeLa cells; Yes/No call from z-scoreHeLa) was “No”, the z-scoreHeLa mean (HeLa cells; [4]) was 0.0318 and the “z-scoreHeLa rep 1” value (HeLa cells; [5]) was 0.20. The “z-scoreHeLa rep 2” value (HeLa cells; [6]) was 0.11 and the “z-scoreHeLa rep 3” value (HeLa cells; [7]) was -0.22.

In the case of Cc1cc(-c2ccnc(Nc3cccc(C#N)c3)n2)cc(C)c1O [GSK1440913A], the “%GFP+ rep 1” value (intracellular MRSA; PKIS compound screen raw data) is reported as 19.8%, the “%GFP+ rep 2” value (intracellular MRSA; PKIS compound screen raw data) is reported as 21.2% and the “%GFP+ rep 3” value (intracellular MRSA; PKIS compound screen raw data) is reported as 19.2%. For the same compound, the effect (intracellular MRSA) was “No”, the hit (intracellular MRSA) was “No” and the “z-scoreMRSA+ mean” value (intracellular MRSA) was -0.84. The “z-scoreMRSA+ rep 1” value (intracellular MRSA) was -1.28, the “z-scoreMRSA+ rep 2” value (intracellular MRSA) was -0.34 and the “z-scoreMRSA+ rep 3” value (intracellular MRSA) was -0.90. For the same compound, the “cell count rep 1” value (HeLa cells; [1]) was 3913, the “cell count rep 2” value (HeLa cells; [2]) was 3957 and the “cell count rep 3” value (HeLa cells; [3]) was 5747. For the same compound, the cell death (HeLa cells; Yes/No call from z-scoreHeLa) was “No”, the z-scoreHeLa mean (HeLa cells; [4]) was -0.09 and the “z-scoreHeLa rep 1” value (HeLa cells; [5]) was -0.32. For the same compound, the “z-scoreHeLa rep 2” value (HeLa cells; [6]) was -0.27 and the “z-scoreHeLa rep 3” value (HeLa cells; [7]) was 0.32.

O=C1Nc2ccc(I)cc2C1=Cc1cc(Br)c(O)c(Br)c1 [GW305074X] was tested, and the “%GFP+ rep 1” value (intracellular MRSA; PKIS compound screen raw data) was 19.6%, the “%GFP+ rep 2” value (intracellular MRSA; PKIS compound screen raw data) was 17.6% and the “%GFP+ rep 3” value (intracellular MRSA; PKIS compound screen raw data) was 21.1%. The effect (intracellular MRSA) was “No”, the hit (intracellular MRSA) was “No” and the “z-scoreMRSA+ mean” value (intracellular MRSA) was -0.96. The “z-scoreMRSA+ rep 1” value (intracellular MRSA) was -1.32, the “z-scoreMRSA+ rep 2” value (intracellular MRSA) was -1.22 and the “z-scoreMRSA+ rep 3” value (intracellular MRSA) was -0.33. The cell death (HeLa cells) was “No”, the “cell count rep 1” value (HeLa cells; human) was 1595 and the “cell count rep 2” value (HeLa cells; human) was 1814. For the same compound, the “cell count rep 3” value (HeLa cells; human) was 1196, the z-scoreHeLa mean (HeLa cells; human) was -2.15 and the “z-scoreHeLa rep 1” value (HeLa cells; human) was -1.99. The “z-scoreHeLa rep 2” value (HeLa cells; human) was -1.91 and the “z-scoreHeLa rep 3” value (HeLa cells; human) was -2.55.

In the case of CS(=O)(=O)CCNCc1nc(-c2ccc3ncnc(Nc4ccc(F)c(Cl)c4)c3c2)cs1 [GW461104A], the “%GFP+ rep 1” value (intracellular MRSA; PKIS compound screen raw data) is reported as 24.3%, the “%GFP+ rep 2” value (intracellular MRSA; PKIS compound screen raw data) is reported as 20.7% and the “%GFP+ rep 3” value (intracellular MRSA; PKIS compound screen raw data) is reported as 21.4%. For the same compound, the effect (intracellular MRSA) was “No”, the hit (intracellular MRSA) was “No” and the “z-scoreMRSA+ mean” value (intracellular MRSA) was -0.31. The “z-scoreMRSA+ rep 1” value (intracellular MRSA) was -0.23, the “z-scoreMRSA+ rep 2” value (intracellular MRSA) was -0.46 and the “z-scoreMRSA+ rep 3” value (intracellular MRSA) was -0.24. The “cell count rep 1” value (HeLa cells; [1]) was 1413, the “cell count rep 2” value (HeLa cells; [2]) was 957 and the “cell count rep 3” value (HeLa cells; [3]) was 819. For the same compound, the cell death (HeLa cells; Yes/No call from z-scoreHeLa) was “No”, the z-scoreHeLa mean (HeLa cells; [4]) was -2.50 and the “z-scoreHeLa rep 1” value (HeLa cells; [5]) was -2.12. The “z-scoreHeLa rep 2” value (HeLa cells; [6]) was -2.57 and the “z-scoreHeLa rep 3” value (HeLa cells; [7]) was -2.79.

In the case of Cc1nnc(-c2ccc(C)c(-c3ccc(C(=O)Nc4ccc(NS(C)(=O)=O)cc4)cc3)c2)o1 [GW702865X], the “%GFP+ rep 1” value (intracellular MRSA; PKIS compounds raw data) is reported as 15.5%, the “%GFP+ rep 2” value (intracellular MRSA; PKIS compounds raw data) is reported as 15.8% and the “%GFP+ rep 3” value (intracellular MRSA; PKIS compounds raw data) is reported as 15.0%. The effect (intracellular MRSA) was “No”, the hit (intracellular MRSA) was “No” and the “z-scoreMRSA+ mean” value (intracellular MRSA) was 0.42. For the same compound, the “z-scoreMRSA+ rep 1” value (intracellular MRSA) was 0.75, the “z-scoreMRSA+ rep 2” value (intracellular MRSA) was 0.77 and the “z-scoreMRSA+ rep 3” value (intracellular MRSA) was -0.26. For the same compound, the “cell count rep 1” value (HeLa cells; PKIS compounds raw data, replicate 1, HeLa cell count) was 4074, the “cell count rep 2” value (HeLa cells; PKIS compounds raw data, replicate 2, HeLa cell count) was 4158 and the “cell count rep 3” value (HeLa cells; PKIS compounds raw data, replicate 3, HeLa cell count) was 6358. For the same compound, the cell death (HeLa cells; Yes/No call from z-scoreHeLa) was “No”, the z-scoreHeLa mean (HeLa cells; [4]) was -0.34 and the “z-scoreHeLa rep 1” value (HeLa cells; [5]) was -0.64. The “z-scoreHeLa rep 2” value (HeLa cells; [6]) was -0.08 and the “z-scoreHeLa rep 3” value (HeLa cells; [7]) was -0.29.
